Where a name gives a salt, the structure may show the parent alone. Read-outs that look alike come from different tables or passages of the source.
Legend:
[1] = test system: erythroid progenitor cells (EPCs); assay: Fetal hemoglobin (HbF) ELISA in day 7 erythroid progenitor cells; type: cell-based, human; details: Homo sapiens, Erythroid progenitor cell, read-out: EPC ELISA (pEC50 category) (converted);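 as to EPC ELISA (pEC50 category): for fetal hemoglobin induction normalized to vehicle-treated cells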
Summary of the method: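 CD34+-derived EPCs, 1,000 cells/well, rhEPO 3 U/mL; Compound A 22-pt series, […]; 5 d, 37° C, 5% CO2. Freeze-thaw lysis, anti-HbF capture + HRP anti-HbF, TMB, OD450. Normalized to DMSO wells.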

DNMT1 = DNMT1 (Homo sapiens, UniProt P26358); assay: DNMT1 biochemical activity, breaklight assay and/or SPA assay
[2] = binned activity in either the breaklight or the SPA assay, read-out: DNMT1 BioChemical (pIC50 category) (converted)
[3] = binned activity in either the breaklight or the SPA assay

Chain of DNMT1 (P26358 whole entry, looked up): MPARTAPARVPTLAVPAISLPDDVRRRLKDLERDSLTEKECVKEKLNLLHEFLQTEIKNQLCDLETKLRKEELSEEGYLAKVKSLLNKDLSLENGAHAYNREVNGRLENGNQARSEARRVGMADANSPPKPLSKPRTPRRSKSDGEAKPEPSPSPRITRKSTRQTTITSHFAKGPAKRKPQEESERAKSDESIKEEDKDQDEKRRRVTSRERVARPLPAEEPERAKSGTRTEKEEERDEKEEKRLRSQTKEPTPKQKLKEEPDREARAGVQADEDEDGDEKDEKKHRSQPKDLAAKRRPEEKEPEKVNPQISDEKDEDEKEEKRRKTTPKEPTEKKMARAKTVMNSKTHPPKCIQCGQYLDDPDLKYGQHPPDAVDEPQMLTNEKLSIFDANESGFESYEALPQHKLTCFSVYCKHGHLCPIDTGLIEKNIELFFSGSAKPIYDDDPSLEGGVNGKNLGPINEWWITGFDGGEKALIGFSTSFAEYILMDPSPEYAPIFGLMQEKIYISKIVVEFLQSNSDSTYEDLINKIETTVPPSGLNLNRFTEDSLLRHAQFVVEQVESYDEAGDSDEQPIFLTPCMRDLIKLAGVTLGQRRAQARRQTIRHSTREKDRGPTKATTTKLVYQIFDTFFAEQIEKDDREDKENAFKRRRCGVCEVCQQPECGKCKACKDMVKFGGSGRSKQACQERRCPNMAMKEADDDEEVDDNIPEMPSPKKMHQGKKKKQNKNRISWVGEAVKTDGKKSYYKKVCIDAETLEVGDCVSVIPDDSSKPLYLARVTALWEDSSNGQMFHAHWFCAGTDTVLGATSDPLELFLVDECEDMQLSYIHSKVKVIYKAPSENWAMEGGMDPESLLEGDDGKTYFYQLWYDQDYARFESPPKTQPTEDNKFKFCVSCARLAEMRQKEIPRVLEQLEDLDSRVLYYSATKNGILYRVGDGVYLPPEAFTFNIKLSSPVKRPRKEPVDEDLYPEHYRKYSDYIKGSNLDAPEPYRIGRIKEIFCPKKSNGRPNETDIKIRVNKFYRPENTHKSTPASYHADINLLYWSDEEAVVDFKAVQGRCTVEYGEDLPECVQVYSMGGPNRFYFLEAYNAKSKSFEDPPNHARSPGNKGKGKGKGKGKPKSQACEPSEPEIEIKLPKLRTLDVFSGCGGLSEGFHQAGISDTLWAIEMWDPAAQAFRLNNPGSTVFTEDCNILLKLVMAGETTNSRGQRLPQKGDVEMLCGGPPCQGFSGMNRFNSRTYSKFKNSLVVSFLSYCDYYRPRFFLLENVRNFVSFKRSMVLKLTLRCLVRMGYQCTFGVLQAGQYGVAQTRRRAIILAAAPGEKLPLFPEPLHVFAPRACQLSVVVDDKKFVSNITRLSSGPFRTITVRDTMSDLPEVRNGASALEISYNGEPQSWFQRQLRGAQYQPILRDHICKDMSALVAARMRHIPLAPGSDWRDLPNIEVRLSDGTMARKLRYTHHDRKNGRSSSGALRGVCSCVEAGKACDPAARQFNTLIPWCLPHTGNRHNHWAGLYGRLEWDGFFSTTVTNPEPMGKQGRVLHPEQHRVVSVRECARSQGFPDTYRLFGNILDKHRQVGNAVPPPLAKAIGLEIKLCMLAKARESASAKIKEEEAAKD

SMILES | IC50 (DNMT1; [2]) [nM] | EC50 ([1]; HbF ELISA, day 7 EPCs, 5 days) [nM] | IC50 (DNMT1; breaklight assay and/or SPA assay, repeated experimental runs, read-out: average pIC50 against DNMT1 (converted)) [nM] | DNMT1 BioChemical (pIC50 category) (DNMT1; [3]) | EC50 [1] [nM]
CCc1c(C#N)c(SC(C(N)=O)c2ccccc2)nc(N2CC[C@H](OP(=O)(O)O)C2)c1C#N (stereo partly drawn) [Example 415, (3S)-1-(6-((2-amino-2-oxo-1-phenylethyl)thio-3,5-dicyano-4-ethylpyridin-2-yl) Pyrrolidin-3-yldihydrogen phosphate] | 1000 to 31600 |  |  |  | 1000 to 31600
CCc1c(C#N)c(SC(C(N)=O)c2ccccc2)nc(N2CCCN3CCCC3C2)c1C#N (centres unmarked) [Example 117, 2-((3,5-Dicyano-4-ethyl-6-(hexahydro-1H-pyrrolo[1,2-a][1,4]diazepin-2(3H)-yl)pyridin-2-yl)thio)-2-phenylacetamide] | 316 to 1000 | < 316 | 316 to 1000 |  | 
CCc1c(C#N)c(SCc2ccc(CN)cc2)nc(N2CCC(N3CCCC3)CC2)c1C#N [Example 68, 2-(4-(Aminomethyl)benzylthio)-4-ethyl-6-(4-(pyrrolidin-1-yl)piperidin-1-yl)pyridine-3,5-dicarbonitrile 2,2,2-trifluoroacetate] | 316 to 1000 | > 31600 |  |  | 
CCc1c(C#N)c(SC(C(N)=O)c2ccc(F)cc2)nc(N2CCNCC2)c1C#N (centres unmarked) [Example 196, 2-((3,5-Dicyano-4-ethyl-6-(piperazin-1-yl)pyridin-2-yl)thio)-2-(4-fluorophenyl)acetamide, Trifluoroacetic Acid Salt] |  | < 316 |  | D (Category D: ≥6.5) | 
CCc1c(C#N)c(SC(C(N)=O)c2ccncc2)nc(N2CCN(C)C(=O)C2)c1C#N (centres unmarked) [Example 10, 2-{[3,5-dicyano-4-ethyl-6-(4-methyl-3-oxopiperazin-1-yl)pyridin-2-yl]sulfanyl}-2-(pyridin-4-yl)acetamide] | 316 to 1000 | > 31600 |  |  | 
CCc1c(C#N)c(SCc2csc(NC(C)=O)n2)nc(N2CCCN(C)CC2)c1C#N [Example 75, N-(4-(((3,5-Dicyano-4-ethyl-6-(4-methyl-1,4-diazepan-1-yl)pyridin-2-yl)thio)methyl)thiazol-2-yl)acetamide] | 316 to 1000 | > 31600 |  |  | 
CCc1c(C#N)c(SCc2ccc(C(=O)NCCO)cc2)nc(N(C)C)c1C#N [Example 292, 4-(((3,5-Dicyano-6-(dimethylamino)-4-ethylpyridin-2-yl)thio)methyl)-N-(2-hydroxyethyl)benzamide] | 316 to 1000 | 1000 to 31600 |  |  | 
CCc1c(C#N)c(SCc2ccc(-n3ccnc3)cc2)nc(N2CCCN(C)CC2)c1C#N [Example 294, 2-((4-(1H-Imidazol-1-yl)benzyl)thio)-4-ethyl-6-(4-methyl-1,4-diazepan-1-yl)pyridine-3,5-dicarbonitrile] | 316 to 1000 | > 31600 |  |  | 
CCc1c(C#N)c(SC(C(N)=O)c2ccccc2)nc(N2CCC(NC(=O)[C@@H](C)N)CC2)c1C#N (stereo partly drawn) [Example 366, (2R)-2-Amino-N-(1-(6-((2-amino-2-oxo-1-phenylethyl)thio)-3,5-dicyano-4-ethylpyridin-2-yl)piperidin-4-yl)propanamide, Hydrochloride] |  | < 316 |  | D (Category D: ≥6.5) | 
CCc1c(C#N)c(SC(C(N)=O)c2ccccc2)nc(N2CCC3(CCCNC3)CC2)c1C#N (centres unmarked) [Example 116, 2-((3,5-Dicyano-4-ethyl-6-(2,9-diazaspiro[5.5]undecan-9-yl)pyridin-2-yl)thio)-2-phenylacetamide] |  | < 316 |  | D (Category D: ≥6.5) | 
CCc1c(C#N)c(SCc2ccc(CNC(C)=O)cc2)nc(N(C)Cc2nnc[nH]2)c1C#N [Example 349, N-(4-(((6-(((4H-1,2,4-Triazol-3-yl)methyl)(methyl)amino)-3,5-dicyano-4-ethylpyridin-2-yl)thio)methyl)benzyl)acetamide] | 316 to 1000 | 1000 to 31600 |  |  | 
CCc1c(C#N)c(SC(C(N)=O)c2ccccc2)nc(N2CCN(Cc3cc[nH]c3)CC2)c1C#N (centres unmarked) [Example 182, 2-((6-(4-((1H-Pyrrol-3-yl)methyl)piperazin-1-yl)-3,5-dicyano-4-ethylpyridin-2-yl)thio)-2-phenylacetamide] | 316 to 1000 | 316 to 1000 |  |  | 
CCc1c(C#N)c(SCc2ccc(CC(=O)NCCO)cc2)nc(N2CCCN(C)CC2)c1C#N [Example 343, 2-(4-(((3,5-Dicyano-4-ethyl-6-(4-methyl-1,4-diazepan-1-yl)pyridin-2-yl)thio)methyl)phenyl)-N-(2-hydroxyethyl)acetamide] |  | 316 to 1000 |  | D (Category D: ≥6.5) | 

Further lines, with some results ahead:

IC50 (DNMT1; [2]) [nM] | EC50 ([1]; HbF ELISA, day 7 EPCs, 5 days) [nM] | IC50 (DNMT1; breaklight assay and/or SPA assay, repeated experimental runs, read-out: average pIC50 against DNMT1 (converted)) [nM] | DNMT1 BioChemical (pIC50 category) (DNMT1; [3]) | SMILES | EC50 [1] [nM]
< 316 | 1000 to 31600 |  |  | N#Cc1c(SC(C(N)=O)c2ccccc2)nc(N2CCC(NCC(N)=O)CC2)c(C#N)c1C1CC1 (centres unmarked) [Example 667, 2-((6-(4-((2-amino-2-oxoethyl)amino)piperidin-1-yl)-3,5-dicyano-4-cyclopropylpyridin-2-yl)thio)-2-phenylacetamide] | 
 | < 316 |  | D (Category D: ≥6.5) | CCc1c(C#N)c(SCc2ccc(N(C)S(=O)(=O)CF)cc2)nc(N2CCCN(C)CC2)c1C#N [Example 595, N-(4-(((3,5-dicyano-4-ethyl-6-(4-methyl-1,4-diazepan-1-yl)pyridin-2-yl)thio)methyl)phenyl)-1-fluoro-N-methylmethanesulfonamide] | 
 | < 316 |  | D (Category D: ≥6.5) | CCc1c(C#N)c(SC(C(N)=O)c2ccccc2)nc(N2CCC(N3CCN(C)CC3)CC2)c1C#N (centres unmarked) [Example 450, 2-((3,5-dicyano-4-ethyl-6-(4-(4-methylpiperazin-1-yl)piperidin-1-yl)pyridin-2-yl)thio)-2-phenylacetamide] | 
 | < 316 |  | D (Category D: ≥6.5) | CCc1c(C#N)c(SC(C(N)=O)c2ccc(F)cc2)nc(N2CCC[C@H](CNCC(C)(C)C)C2)c1C#N (stereo partly drawn) [Example 594, 2-((3,5-dicyano-4-ethyl-6-((R)-3-((neopentylamino)methyl)piperidin-1-yl)pyridin-2-yl)thio)-2-(4-fluorophenyl)acetamide] | 
 | > 31600 |  | D (Category D: ≥6.5) | CCc1c(C#N)c(SCc2ccc(C(=O)Nc3cn[nH]c3)cc2)nc(N2CCCN(C)CC2)c1C#N [Example 543, 4-(((3,5-dicyano-4-ethyl-6-(4-methyl-1,4-diazepan-1-yl)pyridin-2-yl)thio)methyl)-N-(1H-pyrazol-4-yl)benzamide] | 
 | < 316 |  | D (Category D: ≥6.5) | CCc1c(C#N)c(SC(C(N)=O)c2ccccc2)nc(N2CCC(NCCOC)C(F)C2)c1C#N (centres unmarked) [Example 510, 2((3,5-dicyano-4-ethyl-6-(3-fluoro-4-((2-methoxyethyl)amino)piperidin-1-yl)pyridin-2-yl)thio)-2-phenylacetamide] | 
 | < 316 |  | D (Category D: ≥6.5) | CCc1c(C#N)c(SCc2ccc(N(C)S(C)(=O)=O)cc2)nc(N2CCC(NC3CC3)CC2)c1C#N [Example 573, N-(4-(((3,5-dicyano-6-(4-(cyclopropylamino)piperidin-1-yl)-4-ethylpyridin-2-yl)thio)methyl)phenyl)-N-methylmethanesulfonamide] | 
316 to 1000 | 1000 to 31600 |  |  | CCc1c(C#N)c(SCc2ccc(CNC(=O)CO)cc2)nc(N2CCC(O)C2)c1C#N (centres unmarked) [Example 367] | 
 | 316 to 1000 |  | D (Category D: ≥6.5) | CCc1c(C#N)c(SCc2ccc(N(C)S(C)(=O)=O)cc2)nc(N(C)CCNCCOC)c1C#N [Example 480] | 
 | < 316 |  | D (Category D: ≥6.5) | CCc1c(C#N)c(SC(C(N)=O)c2ccc(F)cc2)nc(N2CCC(NCC(C)(C)C)CC2)c1C#N (centres unmarked) [Example 408, 2-((3,5-Dicyano-4-ethyl-6-(4-(neopentylamino)piperidin-1-yl)pyridin-2-yl)thio)-2-(4-fluorophenyl)acetamide] | 
 | < 316 |  | D (Category D: ≥6.5) | CCc1c(C#N)c(SC(C(N)=O)c2ccccc2)nc(N(C)CCN2CCCC2)c1C#N (centres unmarked) [Example 511, 2-((3,5-dicyano-4-ethyl-6-(methyl(2-(pyrrolidin-1-yl)ethyl)amino)pyridin-2-yl)thio)-2-phenylacetamide] | 
 | 1000 to 31600 |  | D (Category D: ≥6.5) | CCc1c(C#N)c(S[C@H](C(N)=O)c2ccccc2)nc(N2C[C@H](O)CO2)c1C#N (single isomer, unassigned) [Example 694] | 
 | < 316 |  | D (Category D: ≥6.5) | CCc1c(C#N)c(SC(C(N)=O)c2ccccc2)nc(N(C)CC(=O)N2CCCC2)c1C#N (centres unmarked) [Example 620, 2-((3,5-dicyano-4-ethyl-6-(methyl(2-oxo-2-(pyrrolidin-1-yl)ethyl)amino)pyridin-2-yl)thio)-2-phenylacetamide] | 
 | < 316 |  | D (Category D: ≥6.5) | CCNCCN(C)c1nc(SC(C(N)=O)c2ccccc2)c(C#N)c(CC)c1C#N (centres unmarked) [Example 468, 2-(3,5-dicyano-4-ethyl-6-((2-(ethylamino)ethyl)(methyl)amino)pyridin-2-ylthio)-2-phenylacetamide] | 
< 316 | < 316 |  |  | CCc1c(C#N)c(SC(C(N)=O)c2ccccc2)nc(N(C)CCNC(=O)C(C)(C)N)c1C#N (centres unmarked) [Example 627, 2-amino-N-(2-((6-((2-amino-2-oxo-1-phenylethyl)thio)-3,5-dicyano-4-ethylpyridin-2-yl)(methyl)amino)ethyl)-2-methylpropanamide] | 
 | < 316 |  | D (Category D: ≥6.5) | CCc1c(C#N)c(SC(C(N)=O)c2ccccc2)nc(N2CCO[C@@H](CNCC(C)(C)C)C2)c1C#N (stereo partly drawn) [Example 567, 2-((3,5-dicyano-4-ethyl-6-((S)-2-((neopentylamino)methyl)morpholino)pyridin-2-yl)thio)-2-phenylacetamide] | 

Reference: patent US10975056B2 (GlaxoSmithKline Intellectual Property Development Limited, priority 2016, dated 2021)
